# Measurements taken from patent US7803757B2, “Peptides based on the sequence of human lactoferrin and their use” (PharmaSurgics in Sweden AB, priority 1998, dated 2010).
# Peptide text beside a SMILES is read from it. * marks the point of attachment. Acm = CC(=O)NC*
# Legend:
# Format in all cases: cell-based
# C. albicans = experiment: concentration for killing of 99% of C. albicans at different pH (Example 13, FIG. 2); conditions: FIG. 2, different pH
# Excerpt: In this example the concentrations needed of three peptides according to the invention for killing of 99% of C. albicans at different pH was compared to a reference peptide. The peptides according to the invention were peptide 2 (linear), peptide 3 (cyclic), peptide 4 (linear), peptide 5 (cyclic) and peptide 7 (lactam bridged), all capped. The reference peptides used were an uncapped cyclic form and an uncapped linear form of a Morinaga peptide, Morinaga 24 and 25. The results are illustrated in FIG. 2.
# Candida krusei = experiment: fungicidal activity against Candida krusei strains (Example 4); conditions: Exp. I
# Experimental: In this example the fungicidal activity of the peptides according to the invention was tested and compared to the fungicidal activity of human lactoferrin. Different concentrations of hLF, peptide 3 and peptide 4 were incubated with different strains of Candida albicans and Candida krusei during 1-2 hours at 37° C. in 0.05 mM KCl at pH 7.0 at two different occasions—experiment I and II, respectively. After incubation samples were taken for plating on Saboroud plates.
# [1] = tested on: LPS-induced IL-6 response in a monocytic cell line (THP-1); experiment: inhibition of LPS-induced IL-6 response in THP-1 cells (Example 5); conditions: agent added 30 minutes after LPS
# Experimental: In this example an in vitro test was performed to study the anti-inflammatory activity of the peptides according to the invention. More precisely, the inhibitory effect of the peptides according to the invention on the LPS-induced IL-6 response in a monocytic cell line (THP-1) was studied and compared to the effect of human lactoferrin by use of the method described by I. Mattsby-Baltzer et al., Pediatr. Res. 40:257-262, 1996. The IL-6 response in the THP-1 cells was induced by addition of LPS. hLF, peptide 3 and peptide 4, respectively, were added 30 minutes after LPS.
# multiresistant S. aureus = experiment: bactericidal activity, multiresistant S. aureus (Example 18); conditions: multiresistant S. aureus 5.0×10^5 per ml
# Experimental: In this example the bactericidal activity of two of the peptides according to the invention was studied in a test with a multiresistant S. aureus. A bacterial solution with a concentration of 5.0×10^5 S. aureus bacterial per ml was used. The concentration of each peptide needed to kill 99% of the bacteria (MMC99%) was determined after 2 hours and after 24 hours of incubation at 37° C.
# Candida albicans = experiment: fungicidal activity against Candida albicans, comparison with EP-A-0 629 347 peptides (Example 7); conditions: C. albicans, I (tenfold steps), 5 · 10^3 yeast cells per ml
# Experimental: In this example an in vitro test was performed to compare the bactericidal and fungicidal activity of the peptides according to the invention with peptides described in EP-A-0 629 347. The peptide according to the invention used was peptide 4, and the peptides according to EP-A-0 629 347 called Morinaga 10, Morinaga 11, Morinaga 12, and Morinaga 13.
# The peptides were incubated with E. coli O14 and Candida albicans. Two concentrations of C. albicans yeast cells were tested, 5·10^6 and 5·10^3 per ml. Different concentrations of the peptides were tested.
# After the incubation, samples were taken for bacterial plating. Serial dilutions of tenfold steps were used in the experiments marked with I in table 5 and of twofold steps in the experiments marked with II.
# E. coli O6K5 = experiment: bactericidal activity, incubation with E. coli O6K5 (Example 3, exp. II); conditions: Exp. II: 100% killing, E. coli O6K5, 1/100 BHI, 2 hours
# Experimental: Human lactoferrin (hLF), peptide 3, and peptide 4, respectively, were incubated with two different strains of E. coli, E. coli O14 (experiment I) and O6K5 (experiment II), in diluted growth medium ( 1/100 BHI—brain heart infusion) for 2 hours. The peptides were also incubated with E. coli O14 in 0.05 mM KCl (pH 7) without any growth medium (experiment III). Different concentrations of the peptides were tested.
# After the incubation, samples were taken for bacterial plating. Serial dilutions of five- and fourfold steps were used in experiments I and II, respectively, and of twofold steps in experiment III.
# The concentrations of the different peptides required for killing 100% (experiments I and II) or 90% (experiment III) of the bacteria are given in table 2.
# E. coli O14 = experiment: bactericidal and growth inhibitory activity, E. coli O14 (Example 9)
# Experimental: E. coli O14 was incubated as described above in the presence of the peptides during 2 hours. The bactericidal activity was measured in the same way as described above.
# The inhibition of growth was measured spectrophotometrically after incubation during 20 hours.
smiles,measurement,setting,value
CC[C@H](C)[C@H](NC(=O)[C@H](CSCNC(C)=O)NC(=O)[C@H](CO)NC(=O)[C@@H](NC(=O)[C@@H]1CCCN1C(=O)[C@@H]1CCCN1C(=O)CNC(=O)[C@H](CCCNC(=N)N)NC(=O)[C@@H](NC(=O)[C@H](CCCCN)NC(=O)[C@H](CCCNC(=N)N)NC(=O)[C@H](CCSC)NC(=O)[C@H](CC(N)=O)NC(=O)[C@H](CCCNC(=N)N)NC(=O)[C@H](CCC(N)=O)NC(=O)[C@H](Cc1c[nH]c2ccccc12)NC(=O)[C@H](CCC(N)=O)NC(=O)[C@H](Cc1ccccc1)NC(=O)[C@H](CSCNC(C)=O)NC(=O)[C@H](CCCCN)NC(=O)[C@@H](NC(C)=O)[C@@H](C)O)C(C)C)C(C)C)C(=O)N[C@@H](CCCCN)C(=O)N[C@@H](CCCNC(=N)N)C(N)=O [Peptide 4] (Ac-TKC(Acm)FQWQRNMRKVRGPPVSC(Acm)IKR-NH2),"concentration needed for killing of 99% of C. albicans, compared with the capped cyclic peptides (in words)",C. albicans,better effects than the capped cyclic peptides
same,ratio hLF/pep. (concentration for 99% killing),Candida krusei; C. krusei CCUG 969,10
same,Concentration of agent for 99% killing,"Candida krusei; C. krusei CCUG 969, 0.05 mM KCl pH 7.0",2.5 µg/mL
same,ratio hLF/pep. (concentration for 99% killing),Candida krusei; C. krusei CCUG 35849,10
same,Concentration of agent for 99% killing,"Candida krusei; C. krusei CCUG 35849, 0.05 mM KCl pH 7.0",1.25 µg/mL
same,% inhibition of LPS response,[1]; IL-6 response in THP-1 cells,39%
same,inhibitory activity on the LPS-induced IL-6 response (in words),[1]; THP-1 cells,significant inhibition
same,MMC99%,multiresistant S. aureus; 2 hours at 37° C.,5.0 µg/mL
same,MMC99%,multiresistant S. aureus; 24 hours at 37° C.,≦0.32 μg/ml
same,Concentration of agent for 100% killing,Candida albicans,10 µg/mL
same,Concentration of agent for 100%/90% killing,E. coli O6K5,≦7.8 μg/ml
same,Concentration of agent for 100% killing,"E. coli O14; E. coli O14, 2 hours",12.5 µg/mL
same,Concentration of agent for inhibition of growth,"E. coli O14; E. coli O14, spectrophotometrically after 20 hours",3.1 µg/mL
